Tests used:
Assay in all cases: KINOMEscan
Type in all cases: binding
Conditions in all cases: read-out: % control activity remaining
AAK1 = target: T1, AAK1 (Homo sapiens, UniProt Q2M2I8)
T1 construct: purchased Eurofins DiscoverX KINOMEscan

BRAF = target: T2, BRAF (Homo sapiens, UniProt P15056)
T2 construct: purchased Eurofins DiscoverX KINOMEscan

CSF1R = target: T3, CSF1R (Homo sapiens, UniProt P07333)
T3 construct: purchased Eurofins DiscoverX KINOMEscan

CSNK1G3 = target: T4, CSNK1G3 (Homo sapiens, UniProt Q9Y6M4)
T4 construct: purchased Eurofins DiscoverX KINOMEscan

FLT3-autoinhibited = target: T5, FLT3-autoinhibited (Homo sapiens, UniProt P36888)
T5 construct: purchased Eurofins DiscoverX KINOMEscan
T5 sequence (P36888 564-993 limits assumed): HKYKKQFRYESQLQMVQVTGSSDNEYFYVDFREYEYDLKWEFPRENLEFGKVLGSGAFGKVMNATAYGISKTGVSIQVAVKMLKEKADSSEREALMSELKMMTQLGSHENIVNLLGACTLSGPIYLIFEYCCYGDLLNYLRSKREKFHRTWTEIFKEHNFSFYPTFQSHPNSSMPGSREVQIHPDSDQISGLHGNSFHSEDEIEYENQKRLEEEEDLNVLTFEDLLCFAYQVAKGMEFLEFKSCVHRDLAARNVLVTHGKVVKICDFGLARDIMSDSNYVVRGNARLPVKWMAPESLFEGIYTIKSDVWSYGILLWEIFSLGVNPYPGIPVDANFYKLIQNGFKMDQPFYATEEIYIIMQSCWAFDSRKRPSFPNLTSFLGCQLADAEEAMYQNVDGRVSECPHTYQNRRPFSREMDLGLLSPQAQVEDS

HCK = target: T6, HCK (Homo sapiens, UniProt P08631)
T6 construct: purchased Eurofins DiscoverX KINOMEscan

LKB1 = target: T7, LKB1 (Homo sapiens, UniProt Q15831)
T7 construct: purchased Eurofins DiscoverX KINOMEscan
T7 sequence (Q15831 1-433): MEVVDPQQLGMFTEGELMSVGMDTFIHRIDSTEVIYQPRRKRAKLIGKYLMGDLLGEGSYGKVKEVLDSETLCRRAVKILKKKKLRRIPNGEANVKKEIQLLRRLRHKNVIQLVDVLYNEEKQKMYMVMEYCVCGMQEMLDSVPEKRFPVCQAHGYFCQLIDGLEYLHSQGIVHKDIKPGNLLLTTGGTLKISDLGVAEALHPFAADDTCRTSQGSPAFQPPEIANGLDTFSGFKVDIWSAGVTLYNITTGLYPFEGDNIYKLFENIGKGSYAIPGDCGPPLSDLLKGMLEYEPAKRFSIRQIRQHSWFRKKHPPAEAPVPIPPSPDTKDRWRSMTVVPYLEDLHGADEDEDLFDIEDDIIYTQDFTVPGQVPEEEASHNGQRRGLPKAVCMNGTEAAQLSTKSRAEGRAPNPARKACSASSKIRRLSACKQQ

MST4 = target: T8, MST4 (Homo sapiens, UniProt Q9P289)
T8 construct: purchased Eurofins DiscoverX KINOMEscan

RIPK4 = target: T9, RIPK4 (Homo sapiens, UniProt P57078)
T9 construct: purchased Eurofins DiscoverX KINOMEscan
T9 sequence (P57078 1-832): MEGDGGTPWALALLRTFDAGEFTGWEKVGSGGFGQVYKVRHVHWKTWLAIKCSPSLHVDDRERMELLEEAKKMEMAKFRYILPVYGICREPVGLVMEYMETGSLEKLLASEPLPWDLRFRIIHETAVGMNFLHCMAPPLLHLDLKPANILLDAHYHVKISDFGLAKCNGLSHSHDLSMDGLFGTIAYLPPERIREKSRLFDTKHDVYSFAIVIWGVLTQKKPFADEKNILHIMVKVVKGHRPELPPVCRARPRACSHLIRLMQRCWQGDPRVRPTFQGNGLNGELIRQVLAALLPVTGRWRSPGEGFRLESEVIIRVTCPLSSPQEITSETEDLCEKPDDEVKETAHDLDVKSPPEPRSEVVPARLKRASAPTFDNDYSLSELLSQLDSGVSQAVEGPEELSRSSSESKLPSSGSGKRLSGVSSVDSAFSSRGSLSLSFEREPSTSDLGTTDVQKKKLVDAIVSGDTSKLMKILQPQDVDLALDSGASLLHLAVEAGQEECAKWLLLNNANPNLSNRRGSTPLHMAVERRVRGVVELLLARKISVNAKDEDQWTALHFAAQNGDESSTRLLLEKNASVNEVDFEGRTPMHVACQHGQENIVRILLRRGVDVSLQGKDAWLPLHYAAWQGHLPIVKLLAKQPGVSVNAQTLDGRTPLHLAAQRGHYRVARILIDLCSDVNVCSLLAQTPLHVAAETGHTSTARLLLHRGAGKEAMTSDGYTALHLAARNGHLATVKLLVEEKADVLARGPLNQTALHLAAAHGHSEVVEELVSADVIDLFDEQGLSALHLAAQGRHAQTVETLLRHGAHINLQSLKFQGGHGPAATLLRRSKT

TLK2 = target: T10, TLK2 (Homo sapiens, UniProt Q86UE8)
T10 construct: purchased Eurofins DiscoverX KINOMEscan

ULK3 = target: T11, ULK3 (Homo sapiens, UniProt Q6PHR2)
T11 construct: purchased Eurofins DiscoverX KINOMEscan
T11 sequence (Q6PHR2 1-472): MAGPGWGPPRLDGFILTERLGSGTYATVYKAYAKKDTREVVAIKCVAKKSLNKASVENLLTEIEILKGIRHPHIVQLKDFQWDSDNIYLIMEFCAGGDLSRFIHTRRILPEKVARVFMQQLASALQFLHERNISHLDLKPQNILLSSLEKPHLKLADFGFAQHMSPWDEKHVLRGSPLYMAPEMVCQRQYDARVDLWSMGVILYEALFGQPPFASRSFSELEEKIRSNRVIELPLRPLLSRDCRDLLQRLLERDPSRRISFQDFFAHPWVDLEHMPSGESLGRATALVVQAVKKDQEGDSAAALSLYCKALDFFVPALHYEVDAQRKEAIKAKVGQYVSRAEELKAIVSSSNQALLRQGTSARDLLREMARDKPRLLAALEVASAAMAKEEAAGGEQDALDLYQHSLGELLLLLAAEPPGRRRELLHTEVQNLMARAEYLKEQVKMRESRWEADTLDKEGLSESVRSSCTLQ

YANK2 = target: T12, YANK2 (Homo sapiens, UniProt Q9NY57)
T12 construct: purchased Eurofins DiscoverX KINOMEscan
T12 sequence (Q9NY57 whole entry): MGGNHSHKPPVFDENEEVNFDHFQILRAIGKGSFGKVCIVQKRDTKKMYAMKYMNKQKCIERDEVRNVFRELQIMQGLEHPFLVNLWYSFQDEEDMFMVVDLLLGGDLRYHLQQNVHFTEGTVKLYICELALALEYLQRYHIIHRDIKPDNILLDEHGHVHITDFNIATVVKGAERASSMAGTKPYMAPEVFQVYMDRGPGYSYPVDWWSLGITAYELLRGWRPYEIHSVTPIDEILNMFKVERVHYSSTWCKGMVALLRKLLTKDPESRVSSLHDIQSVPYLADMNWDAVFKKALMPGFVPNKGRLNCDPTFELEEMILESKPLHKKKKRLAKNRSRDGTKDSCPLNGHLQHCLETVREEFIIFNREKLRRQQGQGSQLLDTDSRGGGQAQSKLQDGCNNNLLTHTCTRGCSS

T2 sequence (P15056 whole entry): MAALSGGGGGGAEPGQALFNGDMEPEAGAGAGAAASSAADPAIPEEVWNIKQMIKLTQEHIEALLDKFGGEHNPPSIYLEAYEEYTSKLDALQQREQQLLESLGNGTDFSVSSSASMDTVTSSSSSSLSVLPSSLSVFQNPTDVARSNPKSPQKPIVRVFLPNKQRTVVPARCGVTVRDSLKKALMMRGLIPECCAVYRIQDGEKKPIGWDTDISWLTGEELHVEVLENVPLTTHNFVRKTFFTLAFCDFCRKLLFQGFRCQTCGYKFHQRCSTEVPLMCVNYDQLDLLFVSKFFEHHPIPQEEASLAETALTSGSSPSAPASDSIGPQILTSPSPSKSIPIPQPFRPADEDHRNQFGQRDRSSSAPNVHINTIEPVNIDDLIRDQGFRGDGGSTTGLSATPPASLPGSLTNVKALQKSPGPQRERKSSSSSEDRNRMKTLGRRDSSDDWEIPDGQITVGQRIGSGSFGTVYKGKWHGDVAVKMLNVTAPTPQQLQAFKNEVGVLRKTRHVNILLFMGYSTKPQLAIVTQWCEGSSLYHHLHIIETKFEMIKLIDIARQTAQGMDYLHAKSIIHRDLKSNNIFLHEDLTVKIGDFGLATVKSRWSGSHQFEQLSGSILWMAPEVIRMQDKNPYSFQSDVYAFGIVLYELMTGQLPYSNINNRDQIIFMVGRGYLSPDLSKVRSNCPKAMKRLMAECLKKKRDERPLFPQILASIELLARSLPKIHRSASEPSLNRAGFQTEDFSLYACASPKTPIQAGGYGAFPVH
T6 sequence (P08631 whole entry): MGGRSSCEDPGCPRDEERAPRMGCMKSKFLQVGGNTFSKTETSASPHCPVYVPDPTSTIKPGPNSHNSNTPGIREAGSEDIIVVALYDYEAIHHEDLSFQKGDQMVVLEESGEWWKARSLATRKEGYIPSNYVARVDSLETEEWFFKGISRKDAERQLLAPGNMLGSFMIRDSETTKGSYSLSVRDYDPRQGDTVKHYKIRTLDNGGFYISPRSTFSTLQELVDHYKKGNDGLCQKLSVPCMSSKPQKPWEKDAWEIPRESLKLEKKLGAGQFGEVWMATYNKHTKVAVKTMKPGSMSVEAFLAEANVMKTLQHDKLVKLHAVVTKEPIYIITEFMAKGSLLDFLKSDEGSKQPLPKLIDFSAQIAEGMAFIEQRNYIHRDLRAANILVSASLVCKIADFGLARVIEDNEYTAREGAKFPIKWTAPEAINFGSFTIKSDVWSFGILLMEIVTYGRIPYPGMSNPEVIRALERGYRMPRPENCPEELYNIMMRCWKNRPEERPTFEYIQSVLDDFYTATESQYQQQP
T3 sequence (P07333 20-972): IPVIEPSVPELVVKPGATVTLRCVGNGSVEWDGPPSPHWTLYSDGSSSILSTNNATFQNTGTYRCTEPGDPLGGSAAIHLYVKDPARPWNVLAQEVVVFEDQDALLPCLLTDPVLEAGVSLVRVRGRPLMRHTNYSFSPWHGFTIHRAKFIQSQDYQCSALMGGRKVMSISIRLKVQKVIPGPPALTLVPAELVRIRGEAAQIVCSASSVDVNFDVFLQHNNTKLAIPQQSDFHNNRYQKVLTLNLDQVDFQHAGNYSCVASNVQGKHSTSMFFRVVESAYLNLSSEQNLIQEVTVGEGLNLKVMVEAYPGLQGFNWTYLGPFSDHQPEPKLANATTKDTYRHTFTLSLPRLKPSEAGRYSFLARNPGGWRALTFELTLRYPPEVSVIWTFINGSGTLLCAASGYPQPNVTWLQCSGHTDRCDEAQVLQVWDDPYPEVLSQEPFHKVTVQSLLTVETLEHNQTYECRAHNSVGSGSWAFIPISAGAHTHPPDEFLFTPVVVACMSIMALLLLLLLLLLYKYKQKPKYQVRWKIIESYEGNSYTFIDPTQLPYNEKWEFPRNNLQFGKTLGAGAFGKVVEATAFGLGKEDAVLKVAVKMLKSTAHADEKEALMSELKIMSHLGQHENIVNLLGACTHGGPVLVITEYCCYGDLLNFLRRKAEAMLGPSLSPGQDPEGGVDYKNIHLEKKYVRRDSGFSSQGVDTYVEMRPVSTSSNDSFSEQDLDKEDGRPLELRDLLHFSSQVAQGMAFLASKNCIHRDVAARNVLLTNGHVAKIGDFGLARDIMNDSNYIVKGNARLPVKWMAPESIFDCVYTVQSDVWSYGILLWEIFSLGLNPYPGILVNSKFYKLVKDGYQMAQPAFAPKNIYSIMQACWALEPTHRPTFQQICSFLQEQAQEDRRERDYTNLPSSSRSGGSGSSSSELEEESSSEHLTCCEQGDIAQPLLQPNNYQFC
T8 sequence (Q9P289 whole entry): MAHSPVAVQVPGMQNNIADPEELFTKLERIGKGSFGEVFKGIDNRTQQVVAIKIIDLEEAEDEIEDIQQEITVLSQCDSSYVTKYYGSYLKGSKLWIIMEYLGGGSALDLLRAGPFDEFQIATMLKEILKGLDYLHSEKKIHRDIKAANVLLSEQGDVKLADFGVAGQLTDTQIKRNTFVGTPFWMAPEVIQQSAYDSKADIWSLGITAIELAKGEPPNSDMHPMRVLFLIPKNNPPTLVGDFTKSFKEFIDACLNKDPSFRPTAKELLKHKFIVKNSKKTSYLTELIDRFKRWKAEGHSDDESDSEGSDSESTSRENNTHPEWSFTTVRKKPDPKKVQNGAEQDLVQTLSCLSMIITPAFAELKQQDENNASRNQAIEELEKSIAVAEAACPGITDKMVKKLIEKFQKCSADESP
T10 sequence (Q86UE8 whole entry): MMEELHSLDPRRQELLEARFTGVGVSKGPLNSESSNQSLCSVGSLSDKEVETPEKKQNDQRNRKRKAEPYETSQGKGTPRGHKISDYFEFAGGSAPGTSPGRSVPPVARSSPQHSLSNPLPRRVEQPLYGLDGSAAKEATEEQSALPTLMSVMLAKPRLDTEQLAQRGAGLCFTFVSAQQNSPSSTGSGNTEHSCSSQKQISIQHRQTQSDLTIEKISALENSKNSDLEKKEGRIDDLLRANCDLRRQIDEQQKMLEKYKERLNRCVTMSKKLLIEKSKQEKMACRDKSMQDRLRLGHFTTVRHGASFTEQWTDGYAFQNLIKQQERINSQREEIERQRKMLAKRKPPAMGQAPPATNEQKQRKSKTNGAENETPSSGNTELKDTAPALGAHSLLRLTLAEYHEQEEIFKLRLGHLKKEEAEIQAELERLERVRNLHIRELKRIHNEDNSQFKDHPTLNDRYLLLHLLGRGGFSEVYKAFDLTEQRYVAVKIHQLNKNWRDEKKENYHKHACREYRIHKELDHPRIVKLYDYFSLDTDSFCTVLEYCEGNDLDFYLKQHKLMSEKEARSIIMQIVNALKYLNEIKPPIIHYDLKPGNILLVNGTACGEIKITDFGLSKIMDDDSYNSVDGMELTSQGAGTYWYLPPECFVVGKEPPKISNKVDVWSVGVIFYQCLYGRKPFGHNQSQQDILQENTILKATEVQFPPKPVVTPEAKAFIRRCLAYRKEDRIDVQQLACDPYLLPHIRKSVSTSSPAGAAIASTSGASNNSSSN
T4 sequence (Q9Y6M4 whole entry): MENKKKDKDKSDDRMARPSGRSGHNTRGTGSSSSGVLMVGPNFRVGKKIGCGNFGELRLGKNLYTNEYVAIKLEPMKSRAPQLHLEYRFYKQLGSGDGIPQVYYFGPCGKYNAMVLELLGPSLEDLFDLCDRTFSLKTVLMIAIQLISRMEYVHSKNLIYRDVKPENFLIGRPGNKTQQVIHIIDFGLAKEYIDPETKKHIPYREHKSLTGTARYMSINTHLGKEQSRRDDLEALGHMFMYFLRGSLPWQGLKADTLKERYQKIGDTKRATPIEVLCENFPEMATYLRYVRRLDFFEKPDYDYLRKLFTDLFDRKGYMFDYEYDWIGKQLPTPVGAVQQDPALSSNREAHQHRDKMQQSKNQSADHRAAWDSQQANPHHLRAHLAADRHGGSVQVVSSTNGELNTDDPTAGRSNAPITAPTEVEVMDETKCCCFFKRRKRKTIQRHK

| Structure (SMILES) | remaining binding at 1 µM (AAK1) [%] | remaining binding at 1 µM (BRAF) [%] | remaining binding at 1 µM (CSF1R) [%] | remaining binding at 1 µM (CSNK1G3) [%] | remaining binding at 1 µM (FLT3-autoinhibited) [%] | remaining binding at 1 µM (HCK) [%] | remaining binding at 1 µM (LKB1) [%] | remaining binding at 1 µM (MST4) [%] | remaining binding at 1 µM (RIPK4) [%] | remaining binding at 1 µM (TLK2) [%] | remaining binding at 1 µM (ULK3) [%] | remaining binding at 1 µM (YANK2) [%] |
| --- | --- | --- | --- | --- | --- | --- | --- | --- | --- | --- | --- | --- |
| CN1CCC(CNc2cc(Cl)nn3c(-c4cc5nc(Nc6ccccc6)[nH]c5cc4F)cnc23)CC1 [compound 31, 6-Chloro-3-(6-fluoro-2-(phenylamino)-1H-benzo[d]imidazol-5-yl)-N-((1-methylpiperidin-4-yl)methyl)imidazo[1,2-b]pyridazin-8-amine] | 100 | 96 | 60 | 100 | 90 | 87 | 77 | 100 | 98 | 89 | 68 | 100 |
| O=C(CN1CCOCC1)N[C@H]1CC[C@H](Nc2cc(Cl)nn3c(-c4ccc5[nH]ncc5c4)cnc23)CC1 [compound 26] | 28 | 98 | 21 | 100 | 0.65 | 93 | 98 | 84 | 95 | 95 | 95 | 100 |
| Clc1cc(NCC2CC2)c2ncc(-c3ccc4[nH]ncc4c3)n2n1 [compound 2, 6-Chloro-N-(cyclopropylmethyl)-3-(1H-indazol-5-yl)imidazo[1,2-b]pyridazin-8-amine] | 39 | 98 | 79 | 100 | 42 | 80 | 52 | 88 | 96 | 98 | 78 | 94 |
